In PubChem BioAssay AID489035 (Sanford-Burnham Center for Chemical Genomics, 2010):
Activity calls are given as the source filed them. How the calls were made is not given here.

What follows are compounds tested on Jurkat NF-kB reporter, TCR-induced, luciferase luminescence (assay: inhibitors of TCR-driven NF-kB activation, dose response, Jurkat cells, luminescence (AID 489035)).

Row | SMILES | IC50
1 | O=C(OCCN1C(=O)c2cccc3c(N4CCOCC4)ccc(c23)C1=O)c1ccc(Cl)cc1 | > 80 µM (inactive)
2 | N#C/C(=C\c1ccc(OCc2ccc(C(=O)O)cc2)cc1)C(=O)N1CCOCC1 | 1.55 µM
3 | CCOC(=O)N/N=C/c1c(C)nn(-c2cccc(C(F)(F)F)c2)c1Cl | > 80 µM (inactive)
4 | CC(=O)N1c2ccc(S(=O)(=O)N3CCC(C(=O)Nc4cccc(C)n4)CC3)cc2CC1C (stereo not given) | > 80 µM (inactive)
5 | CCOc1ccc(N/C(N)=N/c2nc(CSc3nnc(C)s3)cc(=O)[nH]2)cc1 | > 80 µM (inactive)
6 | C=C1C(=O)C=C2CN(C(=O)c3ccccc3)[C@@](Cc3ccc(F)cc3)(C(=O)OC)[C@@H]12 | 0.89 µM
7 | O=C(Nc1ncc(Cc2ccc(SC(F)F)cc2)s1)c1ccc(OC(F)F)cc1 | 7.42 µM
8 | COc1ccc(NC(=O)/C(Cl)=C(/Cl)S(=O)Cc2ccccc2Cl)cn1 (stereo not given) | 0.64 µM
9 | Cc1ccnc2c1ccc1c(C)ccnc12 | 2.42 µM
10 | O=C(NCCOc1ccccc1)c1cc([N+](=O)[O-])ccc1N1CCOCC1 | > 80 µM (inactive)
11 | COc1cccc(N2CCN(C(=O)c3ccc(CS(=O)c4ccccc4C)o3)CC2)c1 (stereo not given) | 16.7 µM
12 | CCOC(=O)Nc1nc(-c2ccccc2)c(C(=O)c2ccccc2)s1 | > 80 µM (inactive)
13 | CCCCS(=O)(=O)/C=C\C=C/S(=O)(=O)CCCC | 0.72 µM
14 | CCCCCCCCCCCCCCCC[n+]1cccc(C(=O)N(CC)CC)c1 | 3.02 µM
15 | CCOCCOC(=O)c1[nH]c2c(c1C)C(=O)CC(c1ccccc1)C2 (stereo not given) | > 80 µM (inactive)
16 | O=C(Nc1cccc(C(F)(F)F)c1)c1sc(Cl)nc1C(F)(F)F | 0.59 µM
17 | CCCCC(=O)NC(c1ccc(N(C)C)cc1)c1ccc2cccnc2c1O (stereo not given) | > 80 µM (inactive)
18 | COc1cc2c(c(OC)c1OC)-c1ccc(OC)c(=O)cc1[C@@H](NC(C)=O)CC2 | > 80 µM (inactive)
19 | Cn1ncnc2c(=O)n(C)c(=O)nc1-2 | 0.51 µM
20 | O=C(Nc1ccc(CSc2ccccc2)cc1)c1ccc(CN2CCOCC2)cc1 | > 80 µM (inactive)
21 | CCCCC(=O)NC(c1ccc(N(CC)CC)cc1)c1ccc2cccnc2c1O (stereo not given) | 8.89 µM
22 | O=C(COc1ccccc1-c1ccccc1)N/N=C/c1cccc2ccccc12 | < 0.16 µM
23 | CCCC(=O)NC(c1ccc(N(C)C)cc1)c1ccc2cccnc2c1O (stereo not given) | 6.58 µM
24 | Cc1ccc(S(=O)(=O)Cc2ccc(C(=O)N3CCN(c4cccc(C)c4C)CC3)o2)cc1 | 15.8 µM
25 | CCc1ccc(N2C(=O)C(Cl)=C(Nc3ccc(C(=O)N4CCCC4)cc3)C2=O)cc1 | 6.33 µM

Row | SMILES | IC50
26 | O=S1(=O)C=C(Sc2nc3cc(Cl)ccc3o2)c2ccccc21 | < 0.16 µM
27 | Cc1ccc(-c2cc(-c3ccc(C)cc3)[n+](-c3ccccc3)c(-c3ccc(C)cc3)c2)cc1 | 6.13 µM
28 | Cc1cc(/C=C2\Sc3ccccc3N2C)cc(C)[n+]1CC1CCCO1 (stereo not given) | 19.2 µM
29 | Cc1ccc(O)c(NC(=O)c2cc(-c3ccccc3)on2)c1 | > 80 µM (inactive)
30 | COc1ccc(N(C(=O)c2ccccc2C)S(=O)(=O)c2cccs2)cc1 | 20 µM (inactive)
31 | CCOc1ccccc1NC(=O)CN(c1ccc(OC)cc1)S(=O)(=O)c1c(C)noc1C | > 80 µM (inactive)
32 | C=C1C(O)[C@@H]2O[C@]3(CC[C@H](/C=C/C(C)[C@@H]4CC(C)=CC5(O[C@H](C[C@@](C)(O)CO)CCC5O)O4)O3)CC[C@H]2O[C@@H]1C(O)CC(C)[C@H]1OC2(CCCCO2)CCC1C (stereo not given in full) | 0.29 µM
33 | COc1ccc(NS(=O)(=O)c2cc(-c3cnc(C4CC4)o3)ccc2C)cc1 | 27 µM (inactive)
34 | Cc1nc(Sc2nnnn2C)c2c3c(sc2n1)CCC3 | 5.19 µM
35 | C[C@]12CCC3C(CCC4=CC(O)CC[C@@]43/C=N/O)C1(O)CCC2C1=CC(=O)OC1 (stereo not given in full) | 47.8 µM (inactive)
36 | COc1ccc(CC(=O)Nc2nc(-c3ccc(F)c(F)c3)cs2)cc1OC | 22.4 µM (inactive)
37 | COc1cc(-c2noc(C)c2C#Cc2ccsc2)cc(OC)c1OC | > 80 µM (inactive)
38 | COc1ccc(Nc2ncnc3ccc(Br)cc23)c(OC)c1 | 22 µM (inactive)
39 | COc1ccc(C(=O)NNC(=O)c2ccccn2)cc1 | 1.93 µM
40 | COc1ccccc1N=C(C)C1=C(O)CC(c2ccccc2)CC1=O (stereo not given) | > 80 µM (inactive)
41 | CC(C)(C)C(=O)Nc1ccc(NC(=O)c2ccco2)nc1 | 0.81 µM
42 | COc1ccc(OC)c(NS(=O)(=O)c2ccc(N3CCCC3=O)cc2)c1 | > 80 µM (inactive)
43 | Cc1cccc(N2CCN(C(=O)c3ccc(S(=O)(=O)N(C)c4ccccc4)cc3)CC2)c1C | > 80 µM (inactive)
44 | O=c1cc(-c2ccccc2)[nH]c2cc(F)ccc12 | > 80 µM (inactive)
45 | CCCCCOC(=O)c1[nH]c2c(c1C)C(=O)CC(c1ccco1)C2 (stereo not given) | > 80 µM (inactive)
46 | CNC[C@@H](CC1CCCCC1)NC[C@H](CC(C)C)NCCc1cccc(C(F)(F)F)c1 | 5 µM
47 | COc1cc2nc(NC(=O)c3ccco3)sc(=O)c2cc1OC | 0.47 µM
48 | CC(C)Oc1ccccc1C1CC(=O)Nc2cc3c(cc21)OCO3 (stereo not given) | > 80 µM (inactive)
49 | Cn1cc(/C=N/n2cnc3scc(-c4ccc(Cl)cc4)c3c2=O)c2ccccc21 | > 80 µM (inactive)
50 | CCO[C@H]1OC(C(=O)NCc2nc3ccccc3[nH]2)=C[C@@H](C2CC2)[C@@H]1CCCO | > 80 µM (inactive)

Row | SMILES | IC50
51 | O=C(N=Nc1c(O)[nH]c2ccc(Br)cc12)c1ccccc1-n1cccc1 | 50.2 µM (inactive)
52 | COc1ccc(-n2nnnc2-c2ccccc2)cc1 | > 80 µM (inactive)
53 | CCCC(=O)NC(c1ccc(C)cc1)c1ccc2cccnc2c1O (stereo not given) | 8.63 µM
54 | Cc1ccc(NS(=O)(=O)c2ccc(C(=O)NC3CCN(Cc4ccccc4)CC3)cc2)cc1 | 19.8 µM
55 | CCOC(=O)COc1cccc2c(=O)n(CC(=O)NCc3ccccc3)ccc12 | > 80 µM (inactive)
56 | Cc1cc(NC(=O)CSc2nc3c(sc4ccccc43)c(=O)n2CCCN2CCOCC2)n[nH]1 | > 80 µM (inactive)
57 | CCOCCCNC(=O)c1ccc2c(c1)N=C(CC)c1cc(Br)ccc1S2 | 5.67 µM
58 | CCCCCCCCC[n+]1cccc2c3ccccc3ccc21 | 8.65 µM
59 | O=C1c2cccc3cc([N+](=O)[O-])cc(c23)C(=O)N1CCN1CCCC1 | > 80 µM (inactive)
60 | COc1cc(C2C3=C(Nc4ncnn42)c2ccccc2CC3)cc(OC)c1OC (stereo not given) | 6.79 µM
61 | COc1ccc(/C=c2/sc3n(c2=O)C(c2ccccc2OC)C2=C(N=3)c3ccccc3CC2)cc1O (stereo not given) | 22.6 µM (inactive)
62 | CC(=O)NC(c1ccc(C(C)C)cc1)c1ccc2cccnc2c1O (stereo not given) | 3.06 µM
63 | Cc1nc(SCC(=O)Nc2nc3ccccc3s2)c(C#N)c(C)c1C | 0.75 µM
64 | CN(Cc1ccccc1)C1=CC(=[N+]2CCCCC2)CC(C)(C)C1 | 20.3 µM (inactive)
65 | COc1ccc([N+](=O)[O-])cc1Nc1c2ccccc2nc2ccccc12 | 50.7 µM (inactive)
66 | O=C(O)c1ccc(N/N=C/c2ccc3c(c2)OCO3)cc1 | 2.78 µM
67 | Cc1cc(-n2c(C)cc(C(=O)CSc3ncnc4ccccc34)c2C)no1 | < 0.16 µM
68 | Cc1c(C(=O)N/N=C/c2ccc(Cl)cc2)[nH]c2ccc(Cl)cc12 | > 80 µM (inactive)
69 | Cc1cc(C)cc(C(=O)N2CC(=O)Nc3ccccc32)c1 | 15.7 µM
70 | COC(=O)c1ccccc1NC(=O)Cn1c(-c2nonc2N)nc2ccccc21 | 43.6 µM (inactive)
71 | O=[N+]([O-])c1ccc(O)c(/C=N/Nc2ccc(Cl)nn2)c1 | 54 µM (inactive)
72 | CCCOCCOC(=O)c1[nH]c2c(c1C)C(=O)CC(c1cc(OC)ccc1OC)C2 (stereo not given) | > 80 µM (inactive)
73 | CCN1/C(=C/C(C)=C/c2sc3ccccc3[n+]2CC)Sc2ccccc21 | 4.63 µM
74 | C#CC[N+](C)(C)CCCCCCCCCCCC | 9.77 µM
75 | Cn1c(SC2=CS(=O)(=O)c3ccccc32)nc2ccccc21 | 1.46 µM

Row | SMILES | IC50
76 | COc1ccc(S(=O)(=O)Nc2cccc(-c3ccc4nncn4n3)c2)cc1F | > 80 µM (inactive)
77 | COc1cc(Nc2ccc(C)cc2)c([N+](=O)[O-])nc1[N+](=O)[O-] | > 80 µM (inactive)
78 | COc1cc(CC(=O)OCC(=O)c2ccc3c(c2)OCCO3)cc(OC)c1OC | > 80 µM (inactive)
79 | COC(=O)c1nn(-c2ccc3c(c2)CCN3C(C)=O)cc1O | 1.14 µM
80 | CCCC(=O)NC(c1ccc(C(C)C)cc1)c1ccc2cccnc2c1O (stereo not given) | 4.15 µM
81 | COc1cc(NS(=O)(=O)c2ccc(OC)c(C)c2C)c(OC)cc1Cl | > 80 µM (inactive)
82 | Cn1nc([N+](=O)[O-])nc1Sc1nnc(-c2ccccc2)o1 | 7.97 µM
83 | COc1cc(NCCCCCCCN)c2ncccc2c1 | 21 µM (inactive)
84 | Cc1cc2c(cc1C)C(c1ccccc1OC(C)C)CC(=O)N2 (stereo not given) | 7.61 µM
85 | COc1cc(NC(=O)N2CCNC2=O)cc(C(=O)Nc2cccc(C(F)(F)F)c2)c1 | > 80 µM (inactive)
86 | O=C(COc1ccc(C(=O)c2ccccc2)cc1)NCc1ccc(F)cc1 | 29.2 µM (inactive)
87 | O=c1oc2ccccc2cc1-c1cn(-c2ccccc2)c(=S)[nH]1 | 13 µM
88 | CC1CCN(c2c(NCc3ccc(C(=O)N4CCc5ccccc54)cc3)c(=O)c2=O)CC1 | > 80 µM (inactive)
89 | CCOc1cccc(-c2nnc3n2N=C(c2cc(OC)ccc2OC)CS3)c1 | > 80 µM (inactive)
90 | CCOC(=O)C(C)Oc1cccc2c(=O)n(CC(=O)NCc3ccco3)ccc12 (stereo not given) | > 80 µM (inactive)
91 | COc1ccc(OC)c(-c2nnc3n2N=C(c2ccc(OC)c(OC4CCCC4)c2)CS3)c1 | 15.9 µM
92 | O=C1CC(c2cc(Br)ccc2F)c2cc3c(cc2N1)CCC3 (stereo not given) | 15.6 µM
93 | COc1ccc(C(=O)N(C)Cc2cnn(Cc3ccccc3)c2)cc1S(=O)(=O)N1CCOCC1 | > 80 µM (inactive)
94 | CCOC(=O)c1[nH]c(C)c(C(=O)c2cc(F)ccc2F)c1C | > 80 µM (inactive)
95 | CC1C/C(=C/c2ccncc2)C(=O)/C(=C/c2ccncc2)C1 (stereo not given) | 1.39 µM
96 | CC(=O)O[C@H]1C(=O)[C@@]2(C)C([C@H](OC(=O)c3ccccc3)[C@]3(O)C[C@H](OC(=O)[C@H](O)[C@@H](NC(=O)Cc4ccccc4)c4ccccc4)C(C)=C1C3(C)C)[C@]1(OC(C)=O)CO[C@@H]1C[C@@H]2O (stereo not given in full) | > 80 µM (inactive)
97 | Brc1ccc2c(c1)C(C1=NCCN1)c1ccccc1CS2 (stereo not given) | > 80 µM (inactive)
98 | O=C(Nc1ccccc1Cl)/C(Cl)=C(\Cl)S(=O)c1ccccc1 (stereo not given) | 1.77 µM
99 | O=C(c1cc(-c2ccncc2)nc2c(Cl)cccc12)N1CCN(c2ccccc2F)CC1 | > 80 µM (inactive)
100 | Cc1ccc(O)c(NC(=O)c2cc(-c3ccco3)on2)c1 | > 80 µM (inactive)
